# Laboratory results: PubChem BioAssay (NCI)
# Values joined by “and” are separate entries in the source; they are usually repeats but may differ in a detail not shown here. Equal entries are not always repeated.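 Protocol summary: plate cells (96-well), add compound at 5 concentrations, incubate 48 h, interpolate endpoints linearly. Here, GI50 denotes the concentration required for 50% inhibition of growth. TGI denotes the concentration required for complete inhibition of growth.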
# Key:
# Test in all cases: DTP human tumour cell line panel, 48 h
# [1] = system: MOLT-4 leukemia
# [2] = system: SR leukemia
# [3] = system: OVCAR-5 ovarian
# [4] = system: IGROV1 ovarian
# [5] = system: NCI-H522 lung
# [6] = system: M14 melanoma
# [7] = system: MDA-MB-231 breast
# [8] = system: UACC-62 melanoma
# [9] = system: CAKI-1 renal
# [10] = system: NCI-H460 lung
Compound,GI50 [1],TGI [1],GI50 [2],TGI [2],GI50 [3],TGI [3] [µM],GI50 [4],TGI [4],GI50 [5],TGI [5],GI50 [6],TGI [6],GI50 [7],TGI [7],GI50 [8] [µM],TGI [8],GI50 [9] [µM],TGI [9],GI50 [10],TGI [10]
CC1=C(Nc2ccc(N3CCN(C)CC3)cc2)C(=O)c2cncnc2C1=O,2.01 µM,6.39 µM,3.22 µM,> 100 µM,3.66 µM,16.9,2.24 µM,5.17 µM,16.1 µM,39.3 µM,14.9 µM,32.2 µM,2.67 µM,7.78 µM,2.38,5.64 µM,3.27,14.2 µM,3.31 µM,11.4 µM
COc1cc(-c2nn(-c3cccc(NC(=O)c4ccc(Cl)c(C(F)(F)F)c4)c3)cc2-c2ccncc2)ccc1Cl,5.24 µM,> 32.5 µM,0.809 µM,> 10.2 µM,> 28.4 µM,> 32.5,1.78 µM,> 32.5 µM,0.794 µM,5.52 µM,2.31 µM,> 32.5 µM,1.44 µM,> 32.5 µM,1.6,> 32.5 µM,2.34,> 32.5 µM,2.21 µM,> 32.5 µM
CC[C@H](C)[C@H](NC(=O)[C@H]1CCCCN1C)C(=O)N(C)[C@H](C[C@@H](OC(C)=O)c1nc(C(=O)N[C@@H](Cc2ccccc2)C[C@H](C)C(=O)O)cs1)C(C)C,0.00376 µM and 0.00165 µM,> 16.5 µM,0.000305 µM and 0.00165 µM,> 16.5 µM,0.00324 µM and 0.00165 µM,> 16.5,0.00604 µM and 0.00165 µM,> 16.5 µM,0.000347 µM and < 0.00165 µM,0.0133 µM and < 0.00165 µM,0.000337 µM and < 0.00165 µM,< 0.00165 µM,0.00201 µM and 0.00165 µM,> 16.5 µM,,> 16.5 µM,0.00197,,0.000369 µM and 0.00165 µM,> 16.5 µM
COc1ccc(N=N/C(C(=O)C(F)(F)F)=C(\O)c2ccc(Cl)cc2)cc1,5.09 µM,53 µM,4.26 µM,24.7 µM,12.5 µM,> 100,9.82 µM,> 100 µM,4.93 µM,32.1 µM,2.84 µM,14.9 µM,9.11 µM,66.9 µM,3.91,> 100 µM,3.97,25.5 µM,3.77 µM,27.7 µM
O=C1NC(=NCCCc2ccccc2)S/C1=C\c1ccc2ncccc2c1,7.31 µM,18.9 µM,3.73 µM,16.5 µM,8.09 µM,> 25,5.49 µM,14.1 µM,4.47 µM,9.17 µM,9.63 µM,> 25 µM,8.12 µM,> 22.5 µM,4.65,10.9 µM,5.09,> 18.2 µM,4.08 µM,11.8 µM
CSC1NC(c2ccc(Cl)cc2)=C(C#N)C(=O)N1C1OCC(OC(C)=O)C(OC(C)=O)C1OC(C)=O (stereo not given),,> 100 µM,,> 100 µM,,> 100,,> 100 µM,,> 100 µM,,> 100 µM,,> 100 µM,,> 100 µM,,> 100 µM,,> 100 µM
CCc1nc(N)nc(N)c1-c1ccc(N2CCNCC2)cc1,,> 91.8 µM,,> 66.9 µM,,> 100,,> 100 µM,,> 100 µM,,> 83.9 µM,,> 100 µM,,> 100 µM,,> 100 µM,,> 100 µM
COC(=O)[C@H]1CCCN1C(=O)[C@H]1CCCN1C(=O)[C@H](Cc1c[nH]c2ccccc12)NC(=S)Nc1cc(C(F)(F)F)cc(C(F)(F)F)c1,4.88 µM,> 100 µM,3.67 µM,> 100 µM,2.95 µM,26.8,6.97 µM,> 100 µM,4.49 µM,77.2 µM,7.15 µM,64.1 µM,2.18 µM,5.25 µM,6.14,> 100 µM,15,> 100 µM,3.46 µM,> 100 µM
O=C1/C=C/[C@@H](O)[C@@H]2C[C@@H](O)C[C@H]2/C=C/CCC[C@H](C(F)(F)F)O1,0.174 µM,0.625 µM,0.199 µM,0.591 µM,0.933 µM,24.7,0.561 µM,4.16 µM,0.191 µM,0.515 µM,0.171 µM,3.71 µM,0.268 µM,0.774 µM,0.223,> 35.4 µM,0.178,27.4 µM,9.54 µM,> 100 µM
CCn1c(-c2nonc2N)nc2cncc(C(=O)N3CC[C@H](N)C3)c21,> 25 µM,> 25 µM,2.01 µM,> 25 µM,> 25 µM,> 25,> 25 µM,> 25 µM,> 9.56 µM,> 25 µM,24.6 µM,> 25 µM,> 25 µM,> 25 µM,> 25,> 25 µM,2.35,> 25 µM,17.7 µM,> 25 µM
COc1ccc(/C(C#N)=C2C=C/C(=N/O)c3ccccc3\2)cc1,0.357 µM,12.6 µM,0.133 µM,5.06 µM,2.96 µM,16.5,0.523 µM,17.6 µM,0.0891 µM,0.838 µM,0.228 µM,2.01 µM,0.27 µM,0.796 µM,0.48,7.47 µM,0.608,26.1 µM,0.31 µM,1.23 µM
CCCCCCCCCCCCCC[C@@H](O)[C@H]1CC[C@H]([C@H]2CC[C@H]([C@H](O)CCCCCC[C@@H](O)CC3=C[C@H](C)OC3=O)O2)O1,2.01 µM,8.81 µM and > 25 µM,5.88 µM,6.05 µM and > 25 µM,4.61 µM,> 25,2.61 µM,8.75 µM and > 25 µM,,> 25 µM,1.74 µM,3.44 µM and > 25 µM,2.31 µM,8.9 µM and > 25 µM,> 25,4.5 µM and > 25 µM,1.75,5.01 µM and > 25 µM,0.0214 µM,4.26 µM and > 25 µM
CN1CCN(CCCOc2cccc3nc(Nc4ccc(Cl)c(C(F)(F)F)c4)ccc23)CC1,,,0.54 µM,3.4 µM,1.85 µM,3.41,1.85 µM,3.6 µM,1.83 µM,3.64 µM,1.81 µM,3.48 µM,1.47 µM,3.1 µM,1.72,3.27 µM,1.67,3.19 µM,1.72 µM,3.52 µM
